Laboratory results as given in ChEMBL document CHEMBL1124318, “Quinazoline antifolates inhibiting thymidylate synthase: synthesis of four oligo(L-gamma-glutamyl) conjugates of N10-propargyl-5,8-dideazafolic acid and their enzyme inhibition” (J Med Chem, 1989).
pKi: −log10 of the molar value.

Legend:
Thymidylate synthase [1] = target: T1, Thymidylate synthase (Homo sapiens, UniProt P04818); assay: Compound was tested for inhibition of human (WI-L2) thymidylate synthase; conditions: read-out: Ki app
Target sequence in this assay (P04818 whole entry): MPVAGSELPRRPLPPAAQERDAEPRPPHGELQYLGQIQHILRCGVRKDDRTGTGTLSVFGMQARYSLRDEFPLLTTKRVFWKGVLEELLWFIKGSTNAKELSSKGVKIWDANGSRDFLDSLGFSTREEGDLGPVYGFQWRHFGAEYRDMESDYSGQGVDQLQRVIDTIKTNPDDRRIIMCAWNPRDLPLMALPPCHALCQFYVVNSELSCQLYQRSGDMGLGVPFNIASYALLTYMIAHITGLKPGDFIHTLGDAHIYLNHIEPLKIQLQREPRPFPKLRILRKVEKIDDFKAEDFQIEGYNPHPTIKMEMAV

Thymidylate synthase [2] = target: T1, Thymidylate synthase; assay: Fold increase of inhibition of human thymidylate synthase from that of control
Target sequence in this assay (P04818 2-313 limits assumed): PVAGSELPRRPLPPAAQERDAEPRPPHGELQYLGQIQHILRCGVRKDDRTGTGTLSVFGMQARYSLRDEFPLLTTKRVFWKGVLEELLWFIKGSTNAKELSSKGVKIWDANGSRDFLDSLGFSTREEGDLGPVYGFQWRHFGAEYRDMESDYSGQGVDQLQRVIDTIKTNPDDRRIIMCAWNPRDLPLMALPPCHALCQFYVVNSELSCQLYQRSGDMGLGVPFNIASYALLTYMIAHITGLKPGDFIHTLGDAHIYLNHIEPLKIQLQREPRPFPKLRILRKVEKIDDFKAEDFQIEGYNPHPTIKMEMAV

Compound: C#CCN(Cc1ccc2nc(N)[nH]c(=O)c2c1)c1ccc(C(=O)NC(CCC(=O)NC(CCC(=O)NC(CCC(=O)NC(CCC(=O)O)C(=O)O)C(=O)O)C(=O)O)C(=O)O)cc1 (stereo not drawn)
- pKi (Thymidylate synthase [1]): 10.39

Compound: C#CCN(Cc1ccc2nc(N)nc(O)c2c1)c1ccc(C(=O)NC(CCC(=O)NC(CCC(=O)NC(CCC(=O)NC(CCC(=O)O)C(=O)O)C(=O)O)C(=O)O)C(=O)O)cc1 (stereo not drawn)
- Fold increase (Thymidylate synthase [2]): 171

Compound: C#CCN(Cc1ccc2nc(N)nc(O)c2c1)c1ccc(C(=O)NC(CCC(=O)NC(CCC(=O)O)C(=O)O)C(=O)O)cc1 (stereo not drawn)
- Fold increase (Thymidylate synthase [2]): 31

Compound: C#CCN(Cc1ccc2nc(N)[nH]c(=O)c2c1)c1ccc(C(=O)NC(CCC(=O)NC(CCC(=O)O)C(=O)O)C(=O)O)cc1 (stereo not drawn)
- pKi (Thymidylate synthase [1]): 9.65

Compound: C#CCN(Cc1ccc2nc(N)nc(O)c2c1)c1ccc(C(=O)NC(CCC(=O)NC(CCC(=O)NC(CCC(=O)NC(CCC(=O)NC(CCC(=O)O)C(=O)O)C(=O)O)C(=O)O)C(=O)O)C(=O)O)cc1 (stereo not drawn)
- Fold increase (Thymidylate synthase [2]): 167

Compound: C#CCN(Cc1ccc2nc(N)[nH]c(=O)c2c1)c1ccc(C(=O)NC(CCC(=O)NC(CCC(=O)NC(CCC(=O)NC(CCC(=O)NC(CCC(=O)O)C(=O)O)C(=O)O)C(=O)O)C(=O)O)C(=O)O)cc1 (stereo not drawn)
- pKi (Thymidylate synthase [1]): 10.38

Compound: C#CCN(Cc1ccc2nc(N)nc(O)c2c1)c1ccc(C(=O)NC(CCC(=O)NC(CCC(=O)NC(CCC(=O)O)C(=O)O)C(=O)O)C(=O)O)cc1 (stereo not drawn)
- Fold increase (Thymidylate synthase [2]): 97
- pKi (Thymidylate synthase [1]): 10.14
